Among the test systems are A498; A549; COLO 205; DU-145; EKVX; HCT-116; HOP-62; HOP-92; LOX IMVI; NCI-H226; NCI-H522; OVCAR-5; OVCAR-8; SF-539; SR; SW-620; UO-31; HT-29; SK-OV-3; U-251.
What all share (test): NCI-60 cell line screen, 48 h

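Compound exposure: 48 hours, 5 concentrations, 96-well plates. GI50 = concentration required for 50% inhibition of growth.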 Calls of active or inactive are those of the source. Rule as the data show it: active = GI50 up to about 1.1 µM and inactive = higher.

Take `S=C(NCc1ccccn1)N/N=C/c1ccccn1`: the GI50 with A498 is < 0.0113 µM (active); with A549, < 0.0188 µM (active); in the assay with COLO 205, < 0.01 µM (active); with DU-145, 0.268 µM (active); with EKVX, < 0.0194 µM (active); in the assay on HCT-116, < 0.01 µM (active). For the same compound, the GI50 in the assay with HOP-62 is < 0.01 µM (active); in the assay with HOP-92 it was < 0.0206 µM (active); with LOX IMVI, < 0.0167 µM (active); with NCI-H226 it was < 0.0168 µM (active); with NCI-H522, < 0.01 µM (active); in the assay with OVCAR-5, < 0.01 µM (active). Moreover, the GI50 in the assay on OVCAR-8 is < 0.032 µM (active); in the assay on SF-539 it was < 0.0159 µM (active); with SR it was < 0.01 µM (active); with SW-620, < 0.01 µM (active); with UO-31, < 0.0331 µM (active).
With `O=S(=O)(OI(O)CC(F)(F)F)C(F)(F)F`, the GI50 in the assay with A498, in the assay with A549, in the assay with COLO 205, in the assay with DU-145, with EKVX and with HCT-116 was > 100 µM (inactive) throughout. Besides, the GI50 in the assay on HOP-62, in the assay on HOP-92, in the assay on HT-29, in the assay with LOX IMVI, in the assay on NCI-H226 and in the assay with NCI-H522 was > 100 µM (inactive) each time. Also, the GI50 in the assay with OVCAR-5, in the assay on OVCAR-8, in the assay with SF-539, in the assay with SK-OV-3, with SR and in the assay on SW-620 was > 100 µM (inactive) throughout. Besides, the GI50 in the assay with U-251 and in the assay on UO-31 was > 100 µM (inactive) throughout.
Regarding `Brc1sc(Br)c2c1[C@H](Br)C[C@@H]2Br`, the GI50 is 40.3 µM (inactive) in the assay with A498; 30 µM (inactive) in the assay on A549; 53.6 µM (inactive) in the assay on COLO 205; 24.3 µM (inactive) with DU-145; > 100 µM (inactive) with EKVX; 37.2 µM (inactive) in the assay with HCT-116. Moreover, the GI50 with HOP-62 was 64.9 µM (inactive); in the assay on HOP-92, 21.5 µM (inactive); with HT-29, > 100 µM (inactive); with LOX IMVI, 17.4 µM (inactive); in the assay with NCI-H226, 23.1 µM (inactive); with NCI-H522 it was 16.3 µM (inactive). For the same compound, the GI50 in the assay with OVCAR-5 is > 100 µM (inactive); with OVCAR-8, 21.6 µM (inactive); in the assay on SF-539 it was 19.1 µM (inactive); with SK-OV-3, 59.8 µM (inactive); in the assay on SR, 22.4 µM (inactive); with SW-620, 38.7 µM (inactive). Also, the GI50 is 36.6 µM (inactive) in the assay with U-251 and 19.6 µM (inactive) in the assay with UO-31.
As to `CC(=O)c1cc(I)c(O)c2ncccc12`, the GI50 is 2.85 µM (inactive) with A498; 4.34 µM (inactive) in the assay with A549; 3.11 µM (inactive) in the assay on COLO 205; 3.3 µM (inactive) with DU-145; 6.49 µM (inactive) in the assay with EKVX; 2.94 µM (inactive) in the assay with HCT-116. For the same compound, the GI50 with HOP-62 is 4.36 µM (inactive); in the assay with HOP-92, 2.07 µM (inactive); with HT-29 it was 4.42 µM (inactive); with LOX IMVI, 3.85 µM (inactive); with NCI-H226, 2.33 µM (inactive); in the assay with NCI-H522 it was 3.6 µM (inactive). Also, the GI50 with OVCAR-5 was > 10 µM (inactive); with OVCAR-8 it was 2.92 µM (inactive); with SF-539 it was 3.05 µM (inactive); with SK-OV-3, 4.27 µM (inactive); in the assay with SR, 2.91 µM (inactive); in the assay with SW-620 it was 4.17 µM (inactive). In addition, the GI50 in the assay with U-251 is 3.97 µM (inactive).
Regarding `Cc1oc(N)c(S(=O)(=O)c2cc3ccccc3[n+]([O-])c2N)c1C`, the GI50 in the assay with A498, in the assay with A549, in the assay with COLO 205, with DU-145, in the assay on EKVX and in the assay with HOP-62 was > 100 µM (inactive) each time. Also, the GI50 in the assay with HOP-92, with HT-29, with LOX IMVI, in the assay with NCI-H226, in the assay with NCI-H522 and in the assay with OVCAR-5 was > 100 µM (inactive) throughout. Besides, the GI50 was > 100 µM (inactive) in the assay with OVCAR-8; > 100 µM (inactive) with SF-539; > 100 µM (inactive) in the assay on SK-OV-3; < 0.01 µM (active) in the assay on SR; > 100 µM (inactive) in the assay on SW-620; > 100 µM (inactive) in the assay with U-251. Moreover, in the assay on UO-31, the GI50 is > 100 µM (inactive).
For the compound `O=C(Cn1cc(Br)c(=O)[nH]c1=O)c1ccc(-c2ccccc2)cc1`, the GI50 with A498 is > 100 µM (inactive); with A549 it was > 17.4 µM (inactive); in the assay on COLO 205, > 16.4 µM (inactive); in the assay on DU-145, > 16.1 µM (inactive); in the assay with EKVX, 60 µM (inactive); with HCT-116 it was > 16 µM (inactive). Moreover, the GI50 in the assay on HOP-62 is 5.12 µM (inactive); in the assay with HOP-92, 6.89 µM (inactive); in the assay on HT-29, > 17 µM (inactive); in the assay on LOX IMVI, > 15.4 µM (inactive); in the assay with NCI-H226, 17 µM (inactive); in the assay on NCI-H522, 5.57 µM (inactive). The GI50 was > 14.4 µM (inactive) in the assay with OVCAR-5; 6.76 µM (inactive) with OVCAR-8; 8.41 µM (inactive) in the assay on SF-539; > 58.6 µM (inactive) in the assay with SK-OV-3; > 17 µM (inactive) in the assay with SR; > 17.5 µM (inactive) in the assay with SW-620. Also, the GI50 with U-251 was 5.31 µM (inactive); in the assay on UO-31, > 100 µM (inactive).
Take `NC(=O)CC(/N=C1\C(=O)OC(C(O)CO)\C1=N/C(CC(N)=O)C(=O)O)C(=O)O` (stereo not given): the GI50 in the assay with A498, with A549, in the assay on COLO 205, in the assay on DU-145, in the assay with EKVX and with HCT-116 was > 100 µM (inactive) each time. For the same compound, the GI50 is > 100 µM (inactive) in the assay on HOP-62; > 100 µM (inactive) in the assay with HOP-92; > 100 µM (inactive) in the assay on HT-29; > 100 µM (inactive) with NCI-H226; > 100 µM (inactive) in the assay on NCI-H522; > 10 µM (inactive) in the assay on OVCAR-5. Moreover, the GI50 in the assay with OVCAR-8, in the assay on SF-539, with SK-OV-3, with SR, in the assay on SW-620 and with U-251 was > 100 µM (inactive) in each case. For the same compound, the GI50 with UO-31 is > 100 µM (inactive).
Consider `[N-]=[N+]=NCc1cccc(Nc2cc(=O)[nH]c(=O)[nH]2)c1`, for which the GI50 in the assay with A498, in the assay on A549, in the assay on COLO 205, in the assay on DU-145, with EKVX and with HCT-116 was > 100 µM (inactive) in each case. For the same compound, the GI50 in the assay on HOP-62 is > 100 µM (inactive); with HOP-92, 74 µM (inactive); with HT-29, > 100 µM (inactive); with LOX IMVI it was > 100 µM (inactive); in the assay with NCI-H226, > 100 µM (inactive); in the assay on NCI-H522 it was > 100 µM (inactive). The GI50 in the assay on OVCAR-5, in the assay on OVCAR-8, in the assay with SF-539, with SK-OV-3, in the assay with SR and in the assay on SW-620 was > 100 µM (inactive) in each case. Also, in the assay with UO-31, the GI50 was > 100 µM (inactive).
On to `CN1COCc2c1ccc1cc3ccc4c(c3nc21)COCN4S(C)(=O)=O`, for which the GI50 is > 100 µM (inactive) in the assay on A498; > 100 µM (inactive) in the assay with A549; > 100 µM (inactive) in the assay on COLO 205; > 100 µM (inactive) in the assay on DU-145; 78 µM (inactive) with EKVX; > 100 µM (inactive) in the assay with HCT-116. For the same compound, the GI50 in the assay with HOP-62, with HOP-92, with HT-29, with LOX IMVI, with NCI-H226 and in the assay with NCI-H522 was > 100 µM (inactive) each time. Besides, the GI50 was > 100 µM (inactive) with OVCAR-5; > 100 µM (inactive) with OVCAR-8; > 100 µM (inactive) with SK-OV-3; 3.73 µM (inactive) in the assay on SR; > 100 µM (inactive) in the assay with SW-620; > 100 µM (inactive) in the assay on U-251. The GI50 in the assay on UO-31 was > 100 µM (inactive).
`CC(C)C1=CC23CCC4C(C)(C(=O)O)CCCC4(C)C2CC1C1C(=O)N(c2ccc(Cc4ccc(N5C(=O)C6C7CC8C9(C)CCCC(C)(C(=O)O)C9CCC8(C=C7C(C)C)C6C5=O)cc4)cc2)C(=O)C13` (stereo not given): the GI50 was 8.51 µM (inactive) in the assay on A498; 3.72 µM (inactive) with A549; 7.06 µM (inactive) with COLO 205; 10.3 µM (inactive) in the assay on DU-145; 6.58 µM (inactive) with EKVX; 4.39 µM (inactive) with HCT-116. Also, the GI50 with HOP-62 is 11.6 µM (inactive); in the assay with HOP-92, 20.1 µM (inactive); in the assay on HT-29 it was 3.17 µM (inactive); with NCI-H226, 13.6 µM (inactive); with NCI-H522, 8.18 µM (inactive); in the assay with OVCAR-5 it was 20.8 µM (inactive). The GI50 is 5.26 µM (inactive) with OVCAR-8; 4.16 µM (inactive) with SF-539; 5.75 µM (inactive) in the assay on SR; 11.4 µM (inactive) in the assay on SW-620; 3.94 µM (inactive) in the assay with U-251; 17.1 µM (inactive) in the assay on UO-31.

Values taken from ChEMBL document CHEMBL1201862, “PubChem BioAssay data set” (2004).
